Data published in PMC8939909 (Journal of medicinal chemistry, 2021).

Tests used:
[1] = Mouse pharmacokinetics; conditions: in vivo, iv, 2 mg/kg
[2] = target: T1, human LMPTP-A (Homo sapiens, UniProt P24666)
T1 sequence (P24666 1-158): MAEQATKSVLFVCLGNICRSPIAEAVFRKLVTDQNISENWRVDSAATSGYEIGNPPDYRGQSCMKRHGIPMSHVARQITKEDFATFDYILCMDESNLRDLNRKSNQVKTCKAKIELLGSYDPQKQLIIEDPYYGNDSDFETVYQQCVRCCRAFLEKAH

[3] = target: T1, human LMPTP-A; assay: LMPTP biochemical inhibition assay; conditions: for LMPTP potency, in words (Table 3 series): substitution of the benzyl substituent off the 3-position
[4] = tested on: diabetic DIO mice; assay: DIO diabetes model; type: in vivo, mouse; conditions: 2 weeks
[5] = tested on: HepG2 hepatocytes; assay: Insulin-stimulated AKT Thr308 phosphorylation in HepG2 hepatocytes; type: cell-based, human; conditions: 500 nM overnight, 10 nM insulin 5 min
[6] = tested on: LYP; conditions: HTS workflow; cited from earlier work
[7] = tested on: VHR; conditions: HTS workflow; cited from earlier work
[8] = tested on: panel of PTPs (class I tyrosine-specific and dual-specific PTPs); conditions: 40 μM compound; no other PTP tested
[9] = 0.03% in HFD chow, 10 min after IP insulin

In the case of Cc1ccccc1-c1nc2c(N)ncn(Cc3c(Cl)cccc3Cl)c-2n1 [5d], the clearance at 24 h [1] is reported as 69 mL/min/kg, the “mechanism of LMPTP inhibition” value [2] is reported as “uncompetitive” and the “potency at varying substrate concentrations” value ([2]; 20 nM human LMPTP-A, increasing OMFP) is reported as “enhanced potency in the presence of increasing substrate”.

In the case of Nc1ncn(Cc2ccccc2)c2ncnc1-2 [6a], the “LMPTP potency, in words (Table 3 series)” value [3] is reported as “decreased potency”.

For Nc1ncn(Cc2ccccc2Cl)c2ncnc1-2 [6b], the “LMPTP potency, in words (Table 3 series)” value [3] was “decreased potency”.

With Nc1ncn(Cc2ccc(Cl)cc2Cl)c2ncnc1-2 [6c] the “LMPTP potency, in words (Table 3 series)” value [3] was “decreased potency”.

For Nc1ncn(Cc2cccc(Cl)c2)c2ncnc1-2 [6d], the “LMPTP potency, in words (Table 3 series)” value [3] was “decreased potency”.

In the case of Nc1ncn(Cc2ccc(Cl)cc2)c2ncnc1-2 [6e], the “LMPTP potency, in words (Table 3 series)” value [3] is reported as “decreased potency”.

With Cc1cccc(C)c1Cn1cnc(N)c2ncnc1-2 [6f] the “fold loss in potency (LMPTP)” value ([3]; benzyl substituent off the 3-position, compared with 2,6-bisubstitution) was 10 fold.

With Nc1ncn(Cc2c(Cl)cncc2Cl)c2ncnc1-2 [6g] the “glucose tolerance (IPGTT)” value ([4]; 0.03% in HFD chow (roughly 30 mg/kg/day)) was “significantly improved”, the fasting insulin levels ([4]; 0.03% in HFD chow) was “decreased” and the “insulin-stimulated phosphorylation of the IR activation motif in liver” value [4, 9] was “increased”. The “phosphorylation of AKT Thr308 in liver” value [4, 9] was “increased”, the clearance at 24 h [1] was 18 mL/min/kg and the “HepG2 AKT Thr308 phosphorylation after insulin stimulation” value [5] was “substantially increased”. For the same compound, the “mechanism of LMPTP inhibition” value [2] was “uncompetitive”.

With Cc1ccccc1-c1nc2c(N)ncn(Cc3c(Cl)cncc3Cl)c-2n1 [6h] the “LMPTP potency, in words (Table 3 series)” value [3] was “additional boost in potency” and the clearance at 24 h [1] was 103 mL/min/kg.

In the case of Clc1cccc(Cl)c1Cn1cnc(=NCc2ccco2)c2[nH]cnc21 [compound 2], the “selectivity for LMPTP over LYP” value [6] is given as “high selectivity” and the “selectivity for LMPTP over VHR” value [7] is given as “high selectivity”.

With Nc1ncn(Cc2c(Cl)cccc2Cl)c2ncnc1-2 [compound 3] the “fold more potent than 2 (LMPTP)” value ([3]; compared with 2) was greater than 10 fold, the clearance at 24 h [1] was 5.8 mL/min/kg and the “inhibition of other PTPs of the panel” value [8] was less than 50%.
